Experimental data published in PMC12216609, “Inhibitors of eIF1A-ribosome interaction unveil uORF-dependent regulation of translation initiation and antitumor and antiviral effects” (The EMBO Journal, 2025).
Several values for one entry are separate records, joined by “and”; a condition that tells them apart may be missing. Equal entries are not always repeated. Where two headings read alike, the source gives them in different places.

What was measured:
eIF1A-RPS10 interaction = biological target: T1, eIF1A-RPS10 interaction (Homo sapiens, UniProt P46783+P47813); experiment: Split-Renilla luciferase eIF1A-RPS10 interaction screen, dose-response; format: biochemical
T1 construct: made in house; host or cells: E. coli BL21 (PRSFduet); unpurified lysate supernatant
T1 sequence (P47813 whole entry, one chain of several): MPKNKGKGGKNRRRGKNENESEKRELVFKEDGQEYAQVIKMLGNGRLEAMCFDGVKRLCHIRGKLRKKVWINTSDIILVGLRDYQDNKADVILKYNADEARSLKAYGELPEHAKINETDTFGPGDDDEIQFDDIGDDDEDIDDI
Protocol: While knockdown (KD) studies of eIF1A provided valuable insights into its role in mammalian cell translation (Sehrawat et al, [2019]), this approach presents several limitations. First, it fails to elucidate the functional significance of the opposing functions of eIF1A N- and C-terminal tails with respect to scanning and start codon fidelity. Second, the extended duration required for achieving efficient knockdown, 48–72 h, impairs our ability to differentiate between direct and indirect effects. To overcome these constraints, we set out to develop small-molecule inhibitors targeting eIF1A. Guided by structural and biochemical studies showing eIF1A binding to the small ribosomal subunit at the A-site and interacting directly with RPS10 through its N-terminal tail (Haimov et al, [2017]; Passmore et al, [2007]; Sehrawat et al, [2019]), our approach focused on disrupting the interaction between eIF1A and RPS10. […] The interaction between eIF1A and RPS10 brings the two parts together, leading to the reconstitution of the enzymatic activity (Haimov et al, [2017]). In this system, the spatial arrangement of the two RL parts is critical for the enzymatic activity, making it sensitive not only to direct interference with the interacting proteins but also to changes in the conformation of the fused proteins. In the eIF1A-RPS10 split-RL pair, the C-terminus of eIF1A is fused to N-RL (Fig. 1A), in order to maintain the NTT accessible to RPS10 binding. This pair was cloned and expressed in bacteria as recombinant proteins and used to screen a library of ~50,000 small molecules from diverse sources (Ashkenazi et al, [2017]).
eIF1A-ΔC-Renilla and RPS10-ΔN-Renilla were transformed into BL21 E. coli by heat shock transformation. A bacterial starter of 5 ml LB was incubated overnight at 37 °C and transferred into 1 L LB for incubation at 37 °C until OD ~ 0.5–0.7. Next, protein expression was induced with 0.5 mM IPTG, and bacterial cells were incubated overnight at 16 °C. Bacterial cell pellet was collected after centrifugation (3000 RPM, 15 min), resuspended in 20 ml TKE buffer (Tris 10 mM, KCl 100 mM, EDTA 0.1 mM), sonicated (bath sonicator, 24 cycles of 30 s) and centrifuged again (15000 RPM, 30 min). Supernatants were collected, analyzed for RL activity, and then used for high throughput drug screen (HTS) at the Weizmann G-INCPM HTS unit as described (Ashkenazi et al, [2017]). In addition to the standard controls of this protocol, the two parts of the split RL, without eIF1A or RPS10, were tested as controls. Selected compounds were purchased from Sigma-Aldrich and Enamine. Compound powders were resuspended in DMSO for a final concentration of 10 mM and stored at −20 °C.

eIF1A without NTT = biological target: T2, eIF1A without NTT (Homo sapiens, UniProt P47813); experiment: Fluorescence binding assay with NTT-truncated eIF1A
T2 construct: His-bdSUMO (cleaved yes); made in house; host or cells: E. coli (BL-21)
T2 sequence (P47813 31-144 limits assumed): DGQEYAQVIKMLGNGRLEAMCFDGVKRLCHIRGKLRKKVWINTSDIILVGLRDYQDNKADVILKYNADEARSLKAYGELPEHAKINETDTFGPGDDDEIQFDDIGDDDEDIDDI

[1] = test system: uORF-bearing 5'UTR firefly reporters in HEK293T cells; experiment: uORF reinitiation / leaky scanning firefly reporters; conditions: for ff/rl, 46 leaky reporter / ff/rl, 46 reporter / ff/rl, normal reporter: single replicates, not normalized to DMSO
From the text: (M) The reference and uORF-bearing reporters were transfected to HEK293T cells together with RL, which served to normalize translation efficiency. The reporter activities are represented as firefly vs RL; n ≥3 independent biological replicates, error bars represent SEM. *P < 0.05, **P < 0.01, Student t test. (N) Firefly Reporters (J) were transfected to HEK293T cells together with normalizing RL. […] Results are represented as firefly vs. RL normalized to DMSO in each biological replicate; n = 4, error bars represent SEM. *P < 0.05, **P < 0.01, Student t test.
In the first and second, we inserted an out-of-frame uAUG 46 or 95 nucleotides before the main ORF, respectively, followed by a downstream stop codon generating an uORF of 10 amino acids. In these constructs, the translation from the main ORF could be either by reinitiation or leaky scanning. In the third construct, this out of frame uAUG lacks a stop codon, causing initiation from the main ORF to exclusively occur via leaky scanning (Fig. 4L). These reporters were transfected into HEK293T cells together with RL luciferase reporter for normalizing transfection efficiency. […] We next examined these reporters in the presence of 1Ais.

NSP1 = NSP1 (Severe acute respiratory syndrome coronavirus 2, UniProt P0DTD1)
[2] = summary table, read-out: IC50 concentration (µM), IC50 screen
[3] = Appendix Table S1, read-out: IC50 from the split RL screen

C=CCNC(=O)CN1CCN(Cc2nc3cc(-c4ccc(Cl)cc4)sc3c(=O)[nH]2)CC1 [1Ai-1524]
IC50 (eIF1A-RPS10 interaction; [2]): 30 µM

COc1ccc(C=C2CSc3ccc(Cl)cc3C2=O)cc1O [1Ai-5175]
IC50 (eIF1A-RPS10 interaction; [2]): 16 µM
binding to NTT-truncated eIF1A (eIF1A without NTT): no binding
NTT truncation IC50 (eIF1A without NTT; eIF1A without NTT): No binding
IC50 concentration (µM), NTT truncation (eIF1A without NTT; summary table, fluorescence binding assay): No binding
effect on uORF / leaky scanning reporters ([1]; 20uM (1Ai-5175 at 5uM), overnight): inhibit the short-distance reinitiation
normalized to DMSO, 46 leaky, average ([1]; 46 leaky reporter, average of biological repeats): 0.842
normalized to DMSO, 46 leaky, biological repeats ([1]; 46 leaky reporter, biological repeats 1-4): 0.696 and 0.690 and 0.975 and 1.007
normalized to DMSO, 46 leaky ([1]; 46 leaky reporter, single replicates 1-8 (two dates)): 0.670 and 0.722 and 0.651 and 0.728 and 1.015 and 0.935 and 0.924 and 1.090
normalized to DMSO, -46, average ([1]; -46 reporter, average of biological repeats): 0.583
normalized to DMSO, -46, biological repeats ([1]; -46 reporter, biological repeats 1-4): 0.455 and 0.565 and 0.613 and 0.698
normalized to DMSO, -46 ([1]; -46 reporter, single replicates 1-8 (two dates)): 0.448 and 0.461 and 0.490 and 0.641 and 0.602 and 0.625 and 0.452 and 0.944
ff/rl, 46 leaky reporter ([1]; experiment 12.3.24): 2.64E-02 and 2.84E-02 and 2.56E-02 and 2.87E-02
ff/rl, 46 reporter ([1]; experiment 12.3.24): 9.52E-02 and 9.80E-02 and 1.04E-01 and 1.36E-01
ff/rl, normal reporter ([1]; experiment 12.3.24): 3.34E-01 and 1.68E-01 and 2.05E-01 and 1.98E-01
ff/rl, 46 leaky reporter ([1]; experiment 13.03.24): 4.57E-03 and 4.21E-03 and 4.16E-03 and 4.91E-03
ff/rl, 46 reporter ([1]; experiment 13.03.24): 1.39E-02 and 1.45E-02 and 1.05E-02 and 2.19E-02
ff/rl, normal reporter ([1]; experiment 13.03.24): 4.32E-02 and 3.04E-02 and 3.07E-02 and 3.75E-02
reporter activity norm to DMSO, minus46 ([1]; minus46 reporter, 95nt from uORF to main ORF experiment, Figure 4N source data, replicate experiments, DMSO = 1): 0.1896 and 0.185
95nt from uORF to main ORF experiment, minus46, average (DMSO = 1) ([1]; minus46 reporter, average): 0.497
reporter activity norm to DMSO, minus 95 ([1]; minus 95 (nt) reporter, 95nt from uORF to main ORF experiment, Figure 4N source data, replicate experiments, DMSO = 1): 0.3264 and 0.388
95nt from uORF to main ORF experiment, minus 95nt, average (DMSO = 1) ([1]; minus 95nt reporter, average): 0.9478
reporter activity norm to DMSO, ref ([1]; ref reporter, 95nt from uORF to main ORF experiment, Figure 4N source data, replicate experiments, DMSO = 1): 0.381 and 0.3727
95nt from uORF to main ORF experiment, ref, average (DMSO = 1) ([1]; ref reporter, average): 0.3768
normalized to DMSO, refference, average ([1]; refference reporter, average of biological repeats): 0.842
normalized to DMSO, refference, biological repeats ([1]; refference reporter, biological repeats 1-4): 0.886 and 0.712 and 0.917 and 0.851
normalized to DMSO, refference ([1]; refference reporter, single replicates 1-8 (two dates)): 1.178 and 0.594 and 0.724 and 0.700 and 1.078 and 0.757 and 0.766 and 0.936
normalized to DMSO, single replicates ([1]; reporter 46, experiment 12.3.24): 4.48E-01 and 4.61E-01 and 4.90E-01 and 6.41E-01
normalize to DMSO, average ([1]; reporter 46, experiment 12.3.24, DMSO = 1): 0.51
normalized to DMSO, single replicates ([1]; reporter 46, experiment 13.3.24): 6.02E-01 and 6.25E-01 and 4.52E-01 and 9.44E-01
normalize to DMSO, average ([1]; reporter 46, experiment 13.3.24, DMSO = 1): 0.6556
normalize to DMSO, average ([1]; reporter 46 leaky, experiment 12.3.24, DMSO = 1): 0.6928
normalized to DMSO, single replicates ([1]; reporter 46 leaky, experiment 13.3.24): 1.01E+00 and 9.35E-01 and 9.24E-01 and 1.09E+00
normalize to DMSO, average ([1]; reporter 46 leaky, experiment 13.3.24, DMSO = 1): 0.991
normalized to DMSO, single replicates ([1]; reporter normal (refference), experiment 12.3.24): 1.18E+00 and 5.94E-01 and 7.24E-01 and 7.00E-01
normalized to DMSO, single replicates ([1]; reporter normal (refference), experiment 13.3.24): 1.08E+00 and 7.57E-01 and 7.66E-01 and 9.36E-01
normalize to DMSO, average ([1]; reporter refference, experiment 12.3.24, DMSO = 1): 0.7988
normalize to DMSO, average ([1]; reporter refference, experiment 13.3.24, DMSO = 1): 0.8842
inhibitory effect with extended (long) reinitiation distance ([1]; uORF to main ORF distance extended by 49 nt): lost

O=C(CSc1nc(-c2ccccc2)cn1-c1ccccc1)NC(=O)Nc1ccccc1 [1Ai-2383]
IC50 (eIF1A-RPS10 interaction; [2]): 23 µM
GFP reporter ratio nsp1/gfp, avg (NSP1): 0.4187
GFP reporter ratio nsp1/gfp, rep 1 (NSP1): 0.4187
gfp signal, mean of duplicate wells (NSP1): 2499.5
nsp1 signal, mean of duplicate wells (NSP1): 1046.5
ratio (nsp1/gfp) (NSP1): 0.419

O=S(=O)(c1ccccc1)N1CCN(C2c3ccccc3-c3ccccc32)CC1 [1Ai-9025]
IC50 (eIF1A-RPS10 interaction; [2]): 17 µM

COc1ccc2oc(C(=O)OC(C)C(=O)Nc3sccc3C(N)=O)c(C)c2c1 (centres unmarked) [1Ai-3044]
IC50 (eIF1A-RPS10 interaction; [3]): 15 µM
IC50 (eIF1A-RPS10 interaction; [2]): 10 µM
GFP reporter ratio nsp1/gfp, avg (NSP1): 0.4548
GFP reporter ratio nsp1/gfp, rep 1 (NSP1): 0.4548
gfp signal, mean of duplicate wells (NSP1): 2086.5
nsp1 signal, mean of duplicate wells (NSP1): 949
ratio (nsp1/gfp) (NSP1): 0.455

Cn1c(=O)c2ccccc2n2c(CNC(c3ccc4c(c3)CCC4)c3cccs3)nnc12 (centres unmarked) [1Ai-7688]
IC50 (eIF1A-RPS10 interaction; [2]): 20 µM
GFP reporter ratio nsp1/gfp, avg (NSP1): 0.4413
GFP reporter ratio nsp1/gfp, rep 1 (NSP1): 0.4413
gfp signal, mean of duplicate wells (NSP1): 1907
nsp1 signal, mean of duplicate wells (NSP1): 841.5
ratio (nsp1/gfp) (NSP1): 0.441

O=C(C=Cc1ccc(Cl)s1)Nc1cccc2ncccc12 [1Ai-4860]
IC50 (eIF1A-RPS10 interaction; [2]): 23 µM
GFP reporter ratio nsp1/gfp, avg (NSP1): 0.4044
GFP reporter ratio nsp1/gfp, rep 1 (NSP1): 0.428
GFP reporter ratio nsp1/gfp, rep 2 (NSP1): 0.3807
gfp signal, mean of duplicate wells (NSP1): 2781.5 and 4263
nsp1 signal, mean of duplicate wells (NSP1): 1059 and 1824.5
ratio (nsp1/gfp) (NSP1): 0.381 and 0.428

CCOC(=O)c1ccsc1NC(=O)CN1C(=O)NC(C)(c2cccc3ccccc23)C1=O (centres unmarked) [1Ai-1861]
IC50 (eIF1A-RPS10 interaction; [3]): 14 µM
IC50 (eIF1A-RPS10 interaction; [2]): 15 µM
GFP reporter ratio nsp1/gfp, avg (NSP1): 0.5997
GFP reporter ratio nsp1/gfp, rep 1 (NSP1): 0.5997
gfp signal, mean of duplicate wells (NSP1): 311
nsp1 signal, mean of duplicate wells (NSP1): 186.5
ratio (nsp1/gfp) (NSP1): 0.600

Oc1cc(Cl)ccc1Oc1ccc(Cl)cc1Cl [1Ai-6248]
IC50 (eIF1A-RPS10 interaction; [2]): 28 µM
GFP reporter ratio nsp1/gfp, avg (NSP1): 0.4361
GFP reporter ratio nsp1/gfp, rep 1 (NSP1): 0.4445
GFP reporter ratio nsp1/gfp, rep 2 (NSP1): 0.4277
gfp signal, mean of duplicate wells (NSP1): 2505 and 4211.5
nsp1 signal, mean of duplicate wells (NSP1): 1071.5 and 1872
ratio (nsp1/gfp) (NSP1): 0.428 and 0.444
